Results reported in the supplement of paper PMC12463676, “Small-molecule dissolution of stress granules by redox modulation benefits ALS models” (Nature Chemical Biology, 2025).

How the values were obtained:
potassium arsenate = compound: O=[As]([O-])(O)O.[K+] [potassium arsenate]; test: thermal stability z-score vs DMSO; higher = more thermally stabilized by treatment; conditions: HeLa; arsenate concentration 1 mM
Method: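 Cellular thermal proteome profiling in HeLa cells treated with 1 mM arsenate for 1 h (DMSO pretreatment), heated to ten temperatures (37-66.3 °C). Soluble protein was quantified by TMT mass spectrometry relative to DMSO controls; the thermal stability score was transformed to a z-score; mean of n = 3 experiments.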

lipoamide = compound: NC(=O)CCCCC1CCSS1 [lipoamide]; test: as above; conditions: HeLa, lipoamide concentration 100 µM
Method: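 Cellular thermal proteome profiling in HeLa cells. Cells were treated with 100 µM lipoamide for 1 h, with or without 1 mM arsenate for a further 1 h, then heated to ten temperatures (37-66.3 °C), and soluble protein was quantified by TMT mass spectrometry relative to 0.1% DMSO controls. The thermal stability score (sum of log2 fold changes minus the abundance score) was transformed to a z-score; mean of n = 3 experiments.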

[1] = arsenate co-treatment: 1 mM arsenate 1 h
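Also: each temperature applied for 3 min, abundance score taken as mean log2 fold change at the two lowest temperatures, z-score obtained by mean subtraction and division by SD.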

Chain of UniProt P04792 (P04792 whole entry): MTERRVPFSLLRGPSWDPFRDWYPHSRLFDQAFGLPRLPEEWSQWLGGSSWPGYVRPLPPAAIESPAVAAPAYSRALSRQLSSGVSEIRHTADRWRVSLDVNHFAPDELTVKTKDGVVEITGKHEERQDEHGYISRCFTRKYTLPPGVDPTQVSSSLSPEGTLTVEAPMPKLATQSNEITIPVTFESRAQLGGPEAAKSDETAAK
Chain of UniProt O43719 (O43719 whole entry): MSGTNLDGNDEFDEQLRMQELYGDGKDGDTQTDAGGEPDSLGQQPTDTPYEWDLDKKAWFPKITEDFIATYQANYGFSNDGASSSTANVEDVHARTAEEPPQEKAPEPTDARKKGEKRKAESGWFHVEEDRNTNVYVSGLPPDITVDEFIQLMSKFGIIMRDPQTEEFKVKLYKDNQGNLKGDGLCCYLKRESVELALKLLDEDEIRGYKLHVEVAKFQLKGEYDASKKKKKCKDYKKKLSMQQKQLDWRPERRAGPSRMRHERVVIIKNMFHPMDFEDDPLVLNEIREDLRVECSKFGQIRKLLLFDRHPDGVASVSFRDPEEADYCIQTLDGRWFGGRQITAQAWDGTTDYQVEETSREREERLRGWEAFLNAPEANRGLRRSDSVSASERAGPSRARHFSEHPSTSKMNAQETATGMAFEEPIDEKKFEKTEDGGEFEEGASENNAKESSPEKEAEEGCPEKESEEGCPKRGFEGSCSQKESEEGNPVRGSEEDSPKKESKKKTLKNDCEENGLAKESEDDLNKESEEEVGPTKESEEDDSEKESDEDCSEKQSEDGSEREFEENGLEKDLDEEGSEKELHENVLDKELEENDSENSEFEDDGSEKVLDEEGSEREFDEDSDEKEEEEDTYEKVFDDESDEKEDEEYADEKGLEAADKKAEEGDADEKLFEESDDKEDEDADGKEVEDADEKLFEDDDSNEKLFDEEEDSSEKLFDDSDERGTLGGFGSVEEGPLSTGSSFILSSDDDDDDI
Chain of UniProt Q9NSE4 (Q9NSE4 whole entry): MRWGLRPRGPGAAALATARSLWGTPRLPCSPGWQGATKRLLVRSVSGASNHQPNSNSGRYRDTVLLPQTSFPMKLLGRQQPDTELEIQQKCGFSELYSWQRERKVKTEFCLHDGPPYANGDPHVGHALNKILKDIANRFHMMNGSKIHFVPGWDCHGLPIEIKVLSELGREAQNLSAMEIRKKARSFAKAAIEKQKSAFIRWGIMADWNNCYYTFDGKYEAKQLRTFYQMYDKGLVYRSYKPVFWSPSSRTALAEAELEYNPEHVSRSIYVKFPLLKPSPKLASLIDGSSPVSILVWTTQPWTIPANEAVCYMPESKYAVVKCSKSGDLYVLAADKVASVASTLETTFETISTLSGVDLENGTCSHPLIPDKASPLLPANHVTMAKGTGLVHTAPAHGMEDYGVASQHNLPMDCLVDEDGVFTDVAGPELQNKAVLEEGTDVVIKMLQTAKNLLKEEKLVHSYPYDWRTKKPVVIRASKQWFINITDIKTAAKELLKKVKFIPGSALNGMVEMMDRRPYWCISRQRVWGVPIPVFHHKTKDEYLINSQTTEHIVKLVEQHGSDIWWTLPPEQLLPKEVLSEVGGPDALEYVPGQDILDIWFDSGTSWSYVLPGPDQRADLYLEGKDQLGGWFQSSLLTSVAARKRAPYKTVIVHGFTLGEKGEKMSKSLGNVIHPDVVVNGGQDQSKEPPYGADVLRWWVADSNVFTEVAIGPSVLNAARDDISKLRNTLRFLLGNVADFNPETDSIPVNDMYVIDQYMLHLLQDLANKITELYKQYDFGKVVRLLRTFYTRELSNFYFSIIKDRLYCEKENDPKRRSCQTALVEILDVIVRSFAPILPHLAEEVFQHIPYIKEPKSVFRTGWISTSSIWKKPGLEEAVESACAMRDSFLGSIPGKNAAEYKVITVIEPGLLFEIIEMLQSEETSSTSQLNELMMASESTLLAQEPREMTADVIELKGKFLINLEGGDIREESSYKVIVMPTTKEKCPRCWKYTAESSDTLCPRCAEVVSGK
Chain of UniProt Q9Y4L1 (Q9Y4L1 whole entry): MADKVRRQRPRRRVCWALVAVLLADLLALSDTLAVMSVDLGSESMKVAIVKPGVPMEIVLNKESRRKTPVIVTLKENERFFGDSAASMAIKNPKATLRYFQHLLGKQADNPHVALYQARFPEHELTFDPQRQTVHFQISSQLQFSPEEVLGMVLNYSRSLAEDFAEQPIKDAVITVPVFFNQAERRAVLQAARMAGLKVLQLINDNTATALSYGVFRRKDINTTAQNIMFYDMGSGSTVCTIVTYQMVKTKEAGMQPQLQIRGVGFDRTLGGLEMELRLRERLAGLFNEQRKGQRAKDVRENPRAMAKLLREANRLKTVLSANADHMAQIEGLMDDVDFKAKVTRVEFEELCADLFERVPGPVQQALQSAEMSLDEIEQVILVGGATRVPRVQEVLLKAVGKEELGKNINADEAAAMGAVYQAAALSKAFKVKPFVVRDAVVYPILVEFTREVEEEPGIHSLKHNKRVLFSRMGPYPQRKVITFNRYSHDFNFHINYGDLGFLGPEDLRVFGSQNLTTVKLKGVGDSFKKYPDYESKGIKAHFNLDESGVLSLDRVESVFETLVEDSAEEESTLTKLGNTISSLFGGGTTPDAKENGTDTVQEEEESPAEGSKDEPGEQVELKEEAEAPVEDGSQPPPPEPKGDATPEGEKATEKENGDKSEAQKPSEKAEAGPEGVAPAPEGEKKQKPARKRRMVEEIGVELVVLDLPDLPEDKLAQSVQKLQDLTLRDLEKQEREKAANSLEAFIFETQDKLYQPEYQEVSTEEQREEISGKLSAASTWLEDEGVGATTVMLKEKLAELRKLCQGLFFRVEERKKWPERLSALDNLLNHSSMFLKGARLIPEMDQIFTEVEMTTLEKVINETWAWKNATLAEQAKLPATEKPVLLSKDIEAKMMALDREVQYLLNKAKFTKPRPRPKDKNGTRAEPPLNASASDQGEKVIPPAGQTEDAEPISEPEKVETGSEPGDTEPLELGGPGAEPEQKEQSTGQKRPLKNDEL
Chain of UniProt P11021 (P11021 whole entry): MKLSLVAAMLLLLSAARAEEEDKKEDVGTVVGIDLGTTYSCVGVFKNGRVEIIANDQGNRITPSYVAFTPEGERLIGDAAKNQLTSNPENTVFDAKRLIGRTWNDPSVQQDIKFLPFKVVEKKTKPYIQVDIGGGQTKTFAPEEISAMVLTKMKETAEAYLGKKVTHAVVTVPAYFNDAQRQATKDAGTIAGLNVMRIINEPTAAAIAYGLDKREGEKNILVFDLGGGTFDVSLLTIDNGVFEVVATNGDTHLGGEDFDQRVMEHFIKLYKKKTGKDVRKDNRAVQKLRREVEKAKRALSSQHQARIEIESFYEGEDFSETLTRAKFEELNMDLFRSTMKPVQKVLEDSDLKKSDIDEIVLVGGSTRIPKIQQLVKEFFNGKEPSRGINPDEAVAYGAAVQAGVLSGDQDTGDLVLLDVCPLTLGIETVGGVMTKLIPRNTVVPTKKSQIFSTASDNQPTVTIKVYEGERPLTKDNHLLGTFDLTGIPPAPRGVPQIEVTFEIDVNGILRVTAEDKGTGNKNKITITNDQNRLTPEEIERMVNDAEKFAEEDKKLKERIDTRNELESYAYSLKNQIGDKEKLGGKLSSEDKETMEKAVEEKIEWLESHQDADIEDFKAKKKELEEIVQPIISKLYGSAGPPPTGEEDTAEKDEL
Chain of UniProt P38646 (P38646 whole entry): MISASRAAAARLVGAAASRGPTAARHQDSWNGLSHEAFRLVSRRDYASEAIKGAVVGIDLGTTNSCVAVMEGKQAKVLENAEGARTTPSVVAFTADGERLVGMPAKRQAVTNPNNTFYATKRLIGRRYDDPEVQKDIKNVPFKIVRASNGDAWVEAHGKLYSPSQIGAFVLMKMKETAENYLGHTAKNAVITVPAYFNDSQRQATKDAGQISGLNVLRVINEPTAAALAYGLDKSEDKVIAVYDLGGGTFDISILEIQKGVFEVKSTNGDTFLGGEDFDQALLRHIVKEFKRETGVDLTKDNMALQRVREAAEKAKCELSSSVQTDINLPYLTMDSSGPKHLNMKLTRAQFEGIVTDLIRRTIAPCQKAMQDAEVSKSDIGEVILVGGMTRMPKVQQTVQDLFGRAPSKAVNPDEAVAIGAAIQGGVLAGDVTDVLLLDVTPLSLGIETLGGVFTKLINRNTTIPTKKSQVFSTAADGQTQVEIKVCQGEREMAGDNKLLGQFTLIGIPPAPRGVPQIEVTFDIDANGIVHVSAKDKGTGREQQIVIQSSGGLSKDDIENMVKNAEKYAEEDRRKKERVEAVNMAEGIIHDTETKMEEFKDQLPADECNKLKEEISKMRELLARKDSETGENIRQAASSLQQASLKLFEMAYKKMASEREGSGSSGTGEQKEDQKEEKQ
Chain of UniProt Q2TAA2 (Q2TAA2 whole entry): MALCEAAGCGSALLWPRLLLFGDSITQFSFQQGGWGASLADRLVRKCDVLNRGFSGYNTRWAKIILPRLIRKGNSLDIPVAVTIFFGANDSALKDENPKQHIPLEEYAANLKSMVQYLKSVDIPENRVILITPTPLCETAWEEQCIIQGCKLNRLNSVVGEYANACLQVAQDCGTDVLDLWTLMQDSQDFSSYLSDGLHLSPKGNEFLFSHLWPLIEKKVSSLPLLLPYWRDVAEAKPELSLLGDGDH
Chain of UniProt O60921 (O60921 whole entry): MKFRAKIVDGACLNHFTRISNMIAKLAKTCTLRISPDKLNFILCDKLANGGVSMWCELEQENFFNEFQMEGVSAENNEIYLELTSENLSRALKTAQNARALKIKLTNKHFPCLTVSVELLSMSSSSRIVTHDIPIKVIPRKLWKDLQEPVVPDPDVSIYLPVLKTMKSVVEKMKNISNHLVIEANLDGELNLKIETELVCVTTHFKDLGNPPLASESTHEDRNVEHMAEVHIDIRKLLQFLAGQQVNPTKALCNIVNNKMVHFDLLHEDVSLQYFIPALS
Chain of UniProt P61604 (P61604 whole entry): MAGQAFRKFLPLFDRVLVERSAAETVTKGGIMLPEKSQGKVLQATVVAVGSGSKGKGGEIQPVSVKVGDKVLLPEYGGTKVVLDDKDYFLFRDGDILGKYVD

Target	thermal stability z-score (potassium arsenate)	thermal stability z-score (lipoamide; [1])	thermal stability z-score (lipoamide; arsenate co-treatment: none)
HSP90AA1 (UniProt P07900)	0.428	0.0337	0.301
HSP90AA4P (UniProt Q58FG1)	-2.39	-1.84	-1.53
HSP90AB1 (UniProt P08238)	0.108	-0.421	-0.166
HSP90AB4P (UniProt Q58FF6)	-0.635	0.361	-0.21
HSP90B1 (UniProt P14625)	0.54	-3.56	-2.61
HSPA1B|HSPA1A	-0.064	-0.148	0.0496
HSPA2 (UniProt P54652)	0.26	-0.295	0.552
HSPA4 (UniProt P34932)	-0.388	0.102	0.475
HSPA4L (UniProt O95757)	0.388	0.0785	-0.0888
HSPA5 (UniProt P11021)	0.434	-2.56	-1.9
HSPA8 (UniProt P11142)	-0.107	-0.0626	0.357
HSPA9 (UniProt P38646)	-1.36	-1.1	-0.531
HSPA12A (UniProt O43301)	-0.84	-0.677	-0.446
HSPA13 (UniProt P48723)	-0.112	-2.72	-2.35
HSPA14 (UniProt Q0VDF9)	0.837	-0.553	-0.226
HSPB1 (UniProt P04792)	0.246	-1.04	-0.459
HSPB8 (UniProt Q9UJY1)	-0.597	-0.255	0.0407
HSPB11 (UniProt Q9Y547)	-0.48	-0.309	0.124

Target	thermal stability z-score (potassium arsenate)	thermal stability z-score (lipoamide; [1])	thermal stability z-score (lipoamide; arsenate co-treatment: none)
HSPBP1 (UniProt Q9NZL4)	0.872	-0.134	-0.197
HSPD1 (UniProt P10809)	-0.432	-0.0897	0.0259
HSPE1 (UniProt P61604)	0.112	1.5	0.918
HSPG2 (UniProt P98160)	2.43	0.252	0.126
HSPH1 (UniProt Q92598)	0.196	-0.0648	-0.0435
HTATIP2 (UniProt Q9BUP3)	0.453	-0.914	-0.584
HTATSF1 (UniProt O43719)	-0.763	0.386	0.479
HTRA2 (UniProt O43464)	-0.816	-0.984	-0.617
HTT (UniProt P42858)	0.319	0.301	-0.0612
HUS1 (UniProt O60921)	-0.902	-0.436	-0.56
HUWE1 (UniProt Q7Z6Z7)	0.187	-0.216	0.0195
HYI (UniProt Q5T013)	0.524	1.85	0.651
HYOU1 (UniProt Q9Y4L1)	0.592	-4.47	-3.4
HYPK (UniProt Q9NX55)	-0.114	0.716	0.592
IAH1 (UniProt Q2TAA2)	-0.173	0.672	0.79
IARS2 (UniProt Q9NSE4)	-0.455	-0.232	0.259
IARS (UniProt P41252)	0.763	-0.197	-0.0191
